Measured values as given in patent publication US12409206B2, “Use of cyclosporine analogues for treating fibrosis” (Hepion Pharmaceuticals, Inc., priority 2020, dated 2025).

Assays:
Type in all cases: cell-based
[1] = system: human precision cut IPF lung slices; assay: Secreted markers (ELISA) in precision cut IPF lung slices in culture; details: CRV431 applied at 5 μM; 4 daily treatment intervals; relative to DMSO vehicle
Description: (§1) This example describes a study conducted with precision cut lung slices. Precision cut slices from explanted lung tissue from a patient with biopsy-confirmed, idiopathic pulmonary fibrosis (IPF) were cultured for 6 days. Treatments were applied to 6 replicate slices per treatment on Day 2 of culture and replaced daily on Days 3, 4, and 5 of culture.
For generating the results of secreted marker (% daily average change) shown in FIG. 6A, spent medium (24-hr intervals) was collected on Days 3, 4, 5, and 6 to measure secretion by ELISA of six markers of inflammation and fibrosis: monocyte chemoattractant protein (MCP-1), interleukin-6 (IL-6), matrix metalloproteinase-7 (MMP-7), tissue inhibitor of metalloproteinase-1 (TIMP1), hyaluronic acid, and collagen 1α1. The mean level of secretion from 6 replicate slices for each drug treatment was expressed as a percentage change relative to DMSO vehicle treatment for each day of treatment, and then the mean percentage change from 4 daily treatment intervals was calculated.

[2] = system: human precision cut IPF lung slices; assay: Gene expression (RT-PCR) in precision cut IPF lung slices in culture; details: CRV431 applied at 5 μM; Day 6 of culture after 4 days of treatment; β actin reference
Description: as §1
For generating the results of gene expression shown in FIG. 6B, RNA was isolated from 6 pooled lung slices per treatment on Day 6 of culture following 4 days of drug or vehicle treatment and evaluated by reverse transcription-polymerase chain reaction (RT-PCR) for 6 markers of inflammation and fibrosis: MCP-1, IL-6, TGFβ TIMP1, collagen 1α1, and α-smooth muscle actin (αSMA). β actin was used as a reference gene to calculate relative levels of each target gene RNA.

[3] = system: human precision cut liver slices (PCLS); assay: PCLS biomarker secretion (ELISA); details: CRV431 applied at 5 μM; markers MCP-1, IL-6, TIMP1, hyaluronic acid, fibronectin, collagen 1α1
Description: (§2) PCLS were obtained from 5 human donors who underwent resection of liver cancer. Replicate slices were collected from healthy margins of the resections and cultured for 4 or 6 days depending on the experimental protocol. In the Nonstimulation Protocol slices were cultured for 6 days and treated for the entire period with DMSO vehicle or 5 μM CRV431. In the Stimulation Protocol slices were rested for 1 day and then administered the cytokines, TGFβ and PDGF-BB, for 3 days to stimulate inflammation and fibrosis. DMSO vehicle, CRV431 (1 and 5 μM), Alk5i (10 μM), obeticholic acid (5 μM), elafibranor (5 μM), resmetirom ([…]), and Aramchol (5 μM) were administered individually as drug treatments in the Stimulation Protocol concurrent with TGFβ+PDGF-BB. Culture medium treatments were replaced daily.
(§3) Four types of evaluations were conducted on the PCLS: (a) secretion of inflammation and fibrosis biomarkers into the culture medium, (b) histological staining and quantitation of Sirius red as a measure of tissue fibrosis, (c) gene expression of inflammation and fibrosis biomarkers by RT-PCR, and (d) RNA sequencing (RNA-Seq) of the complete transcriptome. Each of the four types of evaluation is described below: • (a) Biomarker secretion. Spent culture medium was collected daily from duplicate slices for each treatment. ELISAs were used to quantify secretion of monocyte chemoattractant protein (MCP-1), interleukin-6 (IL-6), tissue inhibitor of metalloproteinase-1 (TIMP1), hyaluronic acid, fibronectin, and collagen 1α1. For each donor the mean level of biomarker secretion in each treatment group was expressed as a percentage change relative to DMSO vehicle, the percentages averaged for all donors, and finally the mean daily percentage change calculated from all days of evaluation. […] Sirius red was quantified morphometrically in the histological sections as the percentage area with Sirius red staining in 10 sections from each treatment. In the Nonstimulation Protocol the quantity of Sirius red staining was expressed relative to the vehicle group. In the Stimulation Protocol the quantity of Sirius red staining was expressed relative to nonstimulated PCLS (0%) and TGFβ+PDGF-BB-stimulated+vehicle PCLS (100%). […] RNA was isolated from duplicate liver slices per treatment at the end of the experiments and evaluated by RT-PCR for 5 markers of inflammation and fibrosis: MCP-1, IL-6, TIMP1, αSMA, and collagen 1α1. β actin was used as a reference gene to calculate relative levels of each target gene RNA. […] RNA sequencing of the complete transcriptome (30 million reads per sample) was conducted on vehicle and 5 μM CRV431 treatment groups from 3 donors both from the Nonstimulation and Stimulation Protocols. […]

[4] = system: human precision cut liver slices (PCLS); assay: PCLS gene expression by RT-PCR; details: CRV431 applied at 5 μM; markers MCP-1, IL-6, TIMP1, αSMA, collagen 1α1
Description: as §2, §3

COC(=O)c1ccc2c(c1)NC(=O)/C2=C(\Nc1ccc(N(C)C(=O)CN2CCN(C)CC2)cc1)c1ccccc1 [nintedanib, reference compound]
decreased: mean daily secretion of all markers (MCP-1, IL-6, MMP-7, TIMP1, hyaluronic acid, collagen 1α1) [1] | gene expression of all markers (MCP-1, IL-6, TGFβ, TIMP1, collagen 1α1, αSMA) [2] | mean daily secretion of all markers [3] | gene expression of all markers [4]

Cc1ccc(=O)n(-c2ccccc2)c1 [pirfenidone, reference compound]
decreased: mean daily secretion of all markers (MCP-1, IL-6, MMP-7, TIMP1, hyaluronic acid, collagen 1α1) [1] | gene expression of all markers (MCP-1, IL-6, TGFβ, TIMP1, collagen 1α1, αSMA) [2] | mean daily secretion of all markers [3] | gene expression of all markers [4]
